Data taken from patent publication US20240100012A1, “PHARMACEUTICAL DOSAGE FORM” (priority 2021, published 2024).

How the values were obtained:
[1] = Solubility of escitalopram base in organic solvents; format: physicochemical
[2] = Aqueous solubility of escitalopram base; format: physicochemical; conditions: crystalline and/or oil forms

In the case of `CN(C)CCC[C@@]1(c2ccc(F)cc2)OCc2cc(C#N)ccc21` [escitalopram base, S-1-[3-(dimethylamino)propyl]-1-(4-fluorophenyl)-1,3-dihydro-5-isobenzofurancarbonitrile], the “solubility in organic solvents” value ([1]; crystalline or oil, organic solvents such as N-Methyl-2-pyrrolidone (NMP) and Dimethyl sulfoxide (DMSO)) is reported as “extremely high solubility”, the “escitalopram content of solutions that can be prepared in organic solvents” value ([1]; oil forms of escitalopram base, organic solvents) is reported as “more than 70 % wt” and the aqueous solubility [2] is reported as “low aqueous solubility”.
